Test results: patent US20260250318A1, “COMPOSITIONS AND METHODS FOR CROSSING THE BLOOD BRAIN BARRIER” (VOYAGER THERAPEUTICS, INC., priority 2022, published 2026)

How the values were obtained:
[1] = tested on: brains, heart, liver, muscle, and DRG of the NHPs; assay: Maturation of TTM-001 and TTM-002 capsids, NGS enrichment in NHP tissues; format: in vivo; conditions: relative to AAV9 control
Summary of the method: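 Variants carry mutations within and flanking the loop IV peptide insert: positions 450–466 were triplet-randomized, while positions 449–466 received low-frequency point mutations. The combined pool went into two NHPs, and each peptide was scored by NGS enrichment ratio against AAV9.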

brain = assay: Matured TTM-001 and TTM-002 variants, NGS enrichment in mouse brain; format: in vivo, mice; conditions: relative to AAV9 control
[2] = NGS fold-enrichment of RNA, NHP brain
[3] = NGS fold-enrichment, NHP liver DNA
[4] = NGS fold-enrichment, NHP liver RNA
[5] = NGS fold-enrichment, NHP muscle
[6] = NGS fold-enrichment, mouse brain
[7] = NGS fold-enrichment, DRG of NHPs
[8] = NGS fold-enrichment, RNA, brain of NHPs
[9] = NGS fold-enrichment, heart of NHPs
[10] = NGS fold-enrichment, liver DNA of NHPs
[11] = NGS fold-enrichment, liver RNA of NHPs
[12] = NGS fold-enrichment, muscle of NHPs
[13] = NGS fold-enrichment, brain of mice
[14] = NGS fold-enrichment of matured AAV capsid variants, NHP brain, RNA

Row | Sequence | Fold Enrichment relative to AAV9, Brain (NHP) [1, 2] [fold] | Fold Enrichment relative to AAV9, DRG (NHP) ([1]; NGS fold-enrichment, NHP DRG) [fold] | Fold Enrichment relative to AAV9, Heart (NHP) ([1]; NGS fold-enrichment, NHP heart) [fold] | Fold Enrichment relative to AAV9, Liver DNA (NHP) [1, 3] [fold] | Fold Enrichment relative to AAV9, Liver RNA (NHP) [1, 4] [fold] | Fold Enrichment relative to AAV9, Muscle (NHP) [1, 5] [fold] | Fold Enrichment relative to AAV9, Brain (Mouse) (brain; [6]) [fold] | Fold Enrichment relative to AAV9, DRG (NHP) [1, 7] [fold] | Fold Enrichment relative to AAV9, Brain (NHP) [1, 8] [fold] | Fold Enrichment relative to AAV9, Heart (NHP) [1, 9] [fold] | Fold Enrichment relative to AAV9, Liver DNA (NHP) [1, 10] [fold] | Fold Enrichment relative to AAV9, Liver RNA (NHP) [1, 11] [fold] | Fold Enrichment relative to AAV9, Muscle (NHP) [1, 12] [fold] | Fold Enrichment relative to AAV9, Brain (NHP) [1, 14] [fold] | Fold Enrichment relative to AAV9, DRG (NHP) ([1]; NHP DRG) [fold] | Fold Enrichment relative to AAV9, Heart (NHP) ([1]; NHP heart) [fold] | Fold Enrichment relative to AAV9, Liver DNA (NHP) ([1]; NHP liver, DNA) [fold] | Fold Enrichment relative to AAV9, Liver RNA (NHP) ([1]; NHP liver, RNA) [fold] | Fold Enrichment relative to AAV9, Muscle (NHP) ([1]; NHP muscle) [fold] | Fold Enrichment relative to AAV9, Brain (Mouse) (brain; mouse brain) [fold] | other results
1 | KTDNGHDSPHKSRQNQQT | 105.312 | 0.000 | 0.033 | 0.018 | 0.000 | 0.000 | 7.931 | – | – | – | – | – | – | – | – | – | – | – | – | – | –
2 | KTINGSGSPHSKAQFPST | 75.677 | 0.000 | 0.004 | 0.127 | 0.849 | 0.000 | 119.712 | 0.000 | 75.677 | 0.004 | 0.127 | 0.849 | 0.000 | – | – | – | – | – | – | – | Fold Enrichment relative to AAV9, Brain (Mouse) (brain; [13]): 119.712 fold
3 | KTINGSGSPHSKLKSQQT | – | – | – | – | – | – | – | – | – | – | – | – | – | 50.368 | 0.000 | 0.296 | 1.096 | 1.796 | 0.000 | 95.240 | –
4 | KTINGSGSPHSKAQRMST | – | – | – | – | – | – | – | – | – | – | – | – | – | 58.435 | 0.192 | 0.037 | 0.882 | 1.707 | 0.000 | 53.414 | –
5 | KTVNGGGSPHSKAQSQQT | – | – | – | – | – | – | – | 0.000 | 67.634 | 0.055 | 0.210 | 0.000 | 0.000 | – | – | – | – | – | – | – | Fold Enrichment relative to AAV9, Brain (Mouse) (brain; [13]): 160.711 fold
6 | KTINGGGSPHSKAQNQMT | – | – | – | – | – | – | – | – | – | – | – | – | – | 55.778 | 0.000 | 0.000 | 0.012 | 0.866 | 0.000 | 73.177 | –
7 | KTINGGGSPHSKALNQQN | 77.822 | 0.000 | 0.131 | 0.274 | 0.000 | 0.000 | 69.884 | 0.000 | 77.822 | 0.131 | 0.274 | 0.000 | 0.000 | – | – | – | – | – | – | – | Fold Enrichment relative to AAV9, Brain (Mouse) (brain; [13]): 69.884 fold
8 | KTINGGGSPHSKSQNRQT | – | – | – | – | – | – | – | – | – | – | – | – | – | 51.017 | 0.000 | 0.000 | 0.421 | 0.000 | 0.000 | 149.370 | –
9 | KSINGSGSPHSKAPNLQT | – | – | – | – | – | – | – | – | – | – | – | – | – | 51.812 | 0.000 | 0.256 | 0.139 | 0.085 | 0.000 | 59.270 | –
10 | KTINGGGSPHSKAQNQQC | 89.301 | 0.219 | 0.000 | 0.319 | 0.287 | 0.000 | 53.840 | 0.219 | 89.301 | 0.000 | 0.319 | 0.287 | 0.000 | – | – | – | – | – | – | – | Fold Enrichment relative to AAV9, Brain (Mouse) (brain; [13]): 53.840 fold
11 | KTINAHDSPHKIGQNHQT | 106.832 | 0.000 | 0.121 | 0.231 | 0.000 | 0.000 | 5.074 | – | – | – | – | – | – | – | – | – | – | – | – | – | –
12 | KTWQNSGSPHSKAQNQQT | – | – | – | – | – | – | – | – | – | – | – | – | – | 55.245 | 0.000 | 0.000 | 0.265 | 0.111 | 0.000 | 114.258 | –
13 | KTINGSGSPHSKSQSQQI | – | – | – | – | – | – | – | 0.000 | 61.870 | 0.000 | 0.175 | 0.200 | 0.000 | – | – | – | – | – | – | – | Fold Enrichment relative to AAV9, Brain (Mouse) (brain; [13]): 64.027 fold
14 | KTEKSSGSPHSKAQNQQT | 107.470 | 0.000 | 0.016 | 0.179 | 0.977 | 0.014 | 100.177 | 0.000 | 107.470 | 0.016 | 0.179 | 0.977 | 0.014 | – | – | – | – | – | – | – | Fold Enrichment relative to AAV9, Brain (Mouse) (brain; [13]): 100.177 fold
15 | KTINGSGSPHSKAQYSVT | – | – | – | – | – | – | – | – | – | – | – | – | – | 57.130 | 0.000 | 0.093 | 0.302 | 1.235 | 0.000 | 60.023 | –
